Laboratory results: PubChem BioAssay (NCI)
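48-hour exposure; five concentrations; linearly interpolated endpoints. GI50 marks 50% less growth. At the TGI there is no net growth.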

Key:
Test in all cases: inhibition of tumour cell growth, NCI panel, 48 h
SF-539 CNS = system: SF-539 CNS
MDA-MB-435 = system: MDA-MB-435
A498 renal = system: A498 renal
PC-3 prostate = system: PC-3 prostate
NCI/ADR-RES ovarian = system: NCI/ADR-RES ovarian
DU-145 prostate = system: DU-145 prostate
HCT-15 colon = system: HCT-15 colon
SF-295 CNS = system: SF-295 CNS
COLO 205 colon = system: COLO 205 colon
CCRF-CEM leukemia = system: CCRF-CEM leukemia
UACC-62 melanoma = system: UACC-62 melanoma
SF-268 CNS = system: SF-268 CNS
NCI-H522 lung = system: NCI-H522 lung
BT-549 breast = system: BT-549 breast
SNB-19 CNS = system: SNB-19 CNS
M14 melanoma = system: M14 melanoma
RPMI-8226 leukemia = system: RPMI-8226 leukemia
SK-OV-3 ovarian = system: SK-OV-3 ovarian
K-562 leukemia = system: K-562 leukemia
ACHN renal = system: ACHN renal
RXF 393 renal = system: RXF 393 renal
SN12C renal = system: SN12C renal
HOP-62 NSCLC = system: HOP-62 NSCLC
SK-MEL-5 melanoma = system: SK-MEL-5 melanoma
MDA-MB-231 breast = system: MDA-MB-231 breast
NCI-H23 lung = system: NCI-H23 lung
786-0 renal = system: 786-0 renal
KM12 colon = system: KM12 colon
T-47D breast = system: T-47D breast
MALME-3M melanoma = system: MALME-3M melanoma
SK-MEL-28 melanoma = system: SK-MEL-28 melanoma
NCI-H460 lung = system: NCI-H460 lung
TK-10 renal = system: TK-10 renal
SK-MEL-2 melanoma = system: SK-MEL-2 melanoma
IGROV1 ovarian = system: IGROV1 ovarian
OVCAR-4 ovarian = system: OVCAR-4 ovarian
A549 NSCLC = system: A549 NSCLC
OVCAR-5 ovarian = system: OVCAR-5 ovarian
SR leukemia = system: SR leukemia
NCI-H226 lung = system: NCI-H226 lung
HS 578T breast = system: HS 578T breast
U251 CNS = system: U251 CNS
SW-620 colon = system: SW-620 colon
MOLT-4 leukemia = system: MOLT-4 leukemia
HL-60(TB) leukemia = system: HL-60(TB) leukemia
MCF7 breast = system: MCF7 breast
UO-31 renal = system: UO-31 renal
LOX IMVI melanoma = system: LOX IMVI melanoma
HOP-92 NSCLC = system: HOP-92 NSCLC
SNB-75 CNS = system: SNB-75 CNS
HCT-116 colon = system: HCT-116 colon
UACC-257 melanoma = system: UACC-257 melanoma
EKVX NSCLC = system: EKVX NSCLC
HCC-2998 colon = system: HCC-2998 colon
OVCAR-8 ovarian = system: OVCAR-8 ovarian
HT29 colon = system: HT29 colon
CAKI-1 renal = system: CAKI-1 renal

O=C(CCCCCCN1CC(=O)N2[C@@H](c3cccc(Br)c3)c3[nH]c4ccccc4c3C[C@H]2C1=O)NO
GI50 (SF-539 CNS): 2.89 µM | TGI (SF-539 CNS): 10.5 µM | GI50 (MDA-MB-435): 2.27 µM | TGI (MDA-MB-435): 7.29 µM | GI50 (A498 renal): 2.75 µM | TGI (A498 renal): 6.31 µM | GI50 (PC-3 prostate): 2.23 µM | TGI (PC-3 prostate): > 16.7 µM | GI50 (NCI/ADR-RES ovarian): > 16.7 µM | TGI (NCI/ADR-RES ovarian): > 16.7 µM | GI50 (DU-145 prostate): 3.13 µM | TGI (DU-145 prostate): 12.3 µM | GI50 (HCT-15 colon): 13 µM | TGI (HCT-15 colon): > 16.7 µM | GI50 (SF-295 CNS): 2.57 µM | TGI (SF-295 CNS): 6.58 µM | GI50 (COLO 205 colon): 2.28 µM | TGI (COLO 205 colon): 8.36 µM | GI50 (CCRF-CEM leukemia): 0.709 µM | TGI (CCRF-CEM leukemia): > 16.7 µM | GI50 (UACC-62 melanoma): 1.78 µM | TGI (UACC-62 melanoma): 5.38 µM | GI50 (SF-268 CNS): 3.44 µM | TGI (SF-268 CNS): 9.8 µM | GI50 (NCI-H522 lung): 0.8 µM | TGI (NCI-H522 lung): 5.77 µM | GI50 (BT-549 breast): 3.81 µM | TGI (BT-549 breast): 16.1 µM | GI50 (SNB-19 CNS): 3.79 µM | TGI (SNB-19 CNS): > 16.7 µM | GI50 (M14 melanoma): 2.81 µM | TGI (M14 melanoma): 14.3 µM | GI50 (RPMI-8226 leukemia): 0.982 µM | TGI (RPMI-8226 leukemia): 11.6 µM | GI50 (SK-OV-3 ovarian): 3.23 µM | TGI (SK-OV-3 ovarian): 9.27 µM | GI50 (K-562 leukemia): 1.37 µM | TGI (K-562 leukemia): > 16.7 µM | GI50 (ACHN renal): 3.85 µM | TGI (ACHN renal): 14.9 µM | GI50 (RXF 393 renal): 1.51 µM | TGI (RXF 393 renal): 5.21 µM | GI50 (SN12C renal): 3.9 µM | TGI (SN12C renal): > 16.7 µM | GI50 (HOP-62 NSCLC): 2.51 µM | TGI (HOP-62 NSCLC): 7.59 µM | GI50 (SK-MEL-5 melanoma): 2.6 µM | TGI (SK-MEL-5 melanoma): 9.06 µM | GI50 (MDA-MB-231 breast): 3.25 µM | TGI (MDA-MB-231 breast): 11.5 µM | GI50 (NCI-H23 lung): 3.08 µM | TGI (NCI-H23 lung): 9.78 µM | GI50 (786-0 renal): 3.86 µM | TGI (786-0 renal): 11.1 µM | GI50 (KM12 colon): 2.95 µM | TGI (KM12 colon): 6.65 µM | GI50 (T-47D breast): 1.65 µM | TGI (T-47D breast): 12.8 µM | GI50 (MALME-3M melanoma): 0.922 µM | TGI (MALME-3M melanoma): 7.45 µM | GI50 (SK-MEL-28 melanoma): 2.51 µM | TGI (SK-MEL-28 melanoma): 10.5 µM | GI50 (NCI-H460 lung): 2.43 µM | TGI (NCI-H460 lung): 11.5 µM | GI50 (TK-10 renal): 2.98 µM | TGI (TK-10 renal): 15.1 µM | GI50 (SK-MEL-2 melanoma): 2.77 µM | TGI (SK-MEL-2 melanoma): 12.7 µM | GI50 (IGROV1 ovarian): 0.403 µM | TGI (IGROV1 ovarian): 1.11 µM | GI50 (OVCAR-4 ovarian): 3.17 µM | TGI (OVCAR-4 ovarian): > 16.7 µM | GI50 (A549 NSCLC): 4.83 µM | TGI (A549 NSCLC): > 16.7 µM | GI50 (OVCAR-5 ovarian): 3.37 µM | TGI (OVCAR-5 ovarian): > 16.7 µM | GI50 (SR leukemia): 0.554 µM | TGI (SR leukemia): 8.71 µM | GI50 (NCI-H226 lung): 5.01 µM | TGI (NCI-H226 lung): > 16.7 µM | GI50 (HS 578T breast): 2.25 µM | TGI (HS 578T breast): 12.1 µM | GI50 (U251 CNS): 2.78 µM | TGI (U251 CNS): 10.7 µM | GI50 (SW-620 colon): 2.24 µM | TGI (SW-620 colon): 14.7 µM | GI50 (MOLT-4 leukemia): 0.933 µM | TGI (MOLT-4 leukemia): 10.4 µM | GI50 (HL-60(TB) leukemia): 1.2 µM | TGI (HL-60(TB) leukemia): 6.29 µM | GI50 (MCF7 breast): 1.88 µM | TGI (MCF7 breast): 7.19 µM | GI50 (UO-31 renal): 3.3 µM | TGI (UO-31 renal): > 16.7 µM | GI50 (LOX IMVI melanoma): 0.203 µM | TGI (LOX IMVI melanoma): 0.431 µM | GI50 (HOP-92 NSCLC): 1.84 µM | TGI (HOP-92 NSCLC): 5.78 µM | GI50 (SNB-75 CNS): 0.707 µM | TGI (SNB-75 CNS): 9.15 µM | GI50 (HCT-116 colon): 1.05 µM | TGI (HCT-116 colon): 6.46 µM | GI50 (UACC-257 melanoma): 2.37 µM | TGI (UACC-257 melanoma): > 16.7 µM | GI50 (EKVX NSCLC): 4.33 µM | TGI (EKVX NSCLC): > 16.7 µM | GI50 (HCC-2998 colon): 2.66 µM | TGI (HCC-2998 colon): 5.81 µM | GI50 (OVCAR-8 ovarian): 2.32 µM | TGI (OVCAR-8 ovarian): > 16.7 µM | GI50 (HT29 colon): 2.23 µM | TGI (HT29 colon): > 16.7 µM | GI50 (CAKI-1 renal): 2.6 µM | TGI (CAKI-1 renal): 15 µM
